This note sets out measurements from patent publication US7479493B2, “Substituted benzyl amine compounds” (Janssen Pharmaceutica N.V., priority 2006, dated 2009).

cloned human H3 receptor, sequence (Q9Y5N1 whole entry): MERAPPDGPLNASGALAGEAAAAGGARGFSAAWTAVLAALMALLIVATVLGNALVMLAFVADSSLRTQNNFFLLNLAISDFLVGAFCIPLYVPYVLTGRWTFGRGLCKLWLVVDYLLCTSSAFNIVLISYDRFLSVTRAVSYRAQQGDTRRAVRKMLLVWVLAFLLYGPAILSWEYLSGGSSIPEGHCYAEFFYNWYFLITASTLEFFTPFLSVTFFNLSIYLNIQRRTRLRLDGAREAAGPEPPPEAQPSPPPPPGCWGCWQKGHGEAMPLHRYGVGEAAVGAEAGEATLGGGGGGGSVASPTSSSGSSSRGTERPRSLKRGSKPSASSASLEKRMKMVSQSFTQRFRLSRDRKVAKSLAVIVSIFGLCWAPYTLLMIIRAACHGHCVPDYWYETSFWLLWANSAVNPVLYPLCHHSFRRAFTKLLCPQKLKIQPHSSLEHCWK

The first assay addresses cloned human H3 receptor (Homo sapiens, UniProt Q9Y5N1). The assay is described as follows: H3 Receptor Binding. As to conditions: cloned human H3 receptor stably expressed in SK-N-MC cells.
Broadly, the Ki is a measure of affinity in units of concentration, obtained from inhibition or displacement. The low end stands for tighter binding, the high end for weaker binding. In turn, `CNCc1cc(C(=O)N2CC[C@H](N(C)C)C2)ccc1Oc1ccc(SC)cc1` [Example 25, (S)-(3-Dimethylamino-pyrrolidin-1-yl)-[3-methylaminomethyl-4-(4-methylsulfanyl-phenoxy)-phenyl]-methanone] showed a Ki of 7 nM. Same read-out and setting: as for `CSc1ccc(Oc2ccc(CN3CCN(C(C)C)CC3)cc2CNC2CC2)cc1` [Example 60, Cyclopropyl-[5-(4-isopropyl-piperazin-1-ylmethyl)-2-(4-methylsulfanyl-phenoxy)-benzyl]-amine], the figure is 2 nM; as for `CNCc1cc(C(=O)N2CCN(C3CC3)CC2)ccc1Sc1ccccn1` [Example 29, (4-Cyclopropyl-piperazin-1-yl)-[3-methylaminomethyl-4-(pyridin-2-ylsulfanyl)-phenyl]-methanone], 170 nM.

`CC(C)N1CCN(Cc2ccc(C(=O)N3CCCCC3)cc2Oc2cccnc2)CC1` [Example 88, [4-(4-Isopropyl-piperazin-1-ylmethyl)-3-(pyridin-3-yloxy)-phenyl]-piperidin-1-yl-methanone] came in with a Ki of 220 nM. Turning to `CNCCNC(=O)c1ccc(CN(C)C)c(Oc2cccnc2)c1` [Example 89, 4-Dimethylaminomethyl-N-(2-methylamino-ethyl)-3-(pyridin-3-yloxy)-benzamide], the Ki is 1900 nM. The same measure, in the same setting: as for `COCCN(CCOC)Cc1ccc(C(=O)N2CCC(N(C)C)CC2)cc1Oc1cccnc1` [Example 86, [4-{[Bis-(2-methoxy-ethyl)-amino]-methyl}-3-(pyridin-3-yloxy)-phenyl]-(4-dimethylamino-piperidin-1-yl)-methanone], the figure is 200 nM; as for `COCCN(CCOC)Cc1ccc(C(=O)N2CCN(C3CC3)CC2)cc1Oc1ccc(C)nc1C` [Example 82, [4-{[Bis-(2-methoxy-ethyl)-amino]-methyl}-3-(2,6-dimethyl-pyridin-3-yloxy)-phenyl]-(4-cyclopropyl-piperazin-1-yl)-methanone], 200 nM. Compound `COc1cccc(Oc2ccc(C(=O)N3CCN(C(C)C)CC3)cc2CN(C)C(=O)OC(C)(C)C)c1` [Example 91, [5-(4-Isopropyl-piperazine-1-carbonyl)-2-(3-methoxy-phenoxy)-benzyl]-methyl-carbamic acid tert-butyl ester] returned an inhibition constant Ki of 58 nM. The same measure, in the same setting: then `CN(C)Cc1ccc(C(=O)N2CCCCC2)cc1Oc1ccccc1` [Example 84, (4-Dimethylaminomethyl-3-phenoxy-phenyl)-piperidin-1-yl-methanone], with 4500 nM. Same read-out and setting: then `COCCN(CCOC)Cc1ccc(C(=O)N2CCN(C(C)C)CC2)cc1Oc1ccccc1` [Example 85, (4-{[Bis-(2-methoxy-ethyl)-amino]-methyl}-3-phenoxy-phenyl)-(4-isopropyl-piperazin-1-yl)-methanone], with 12 nM.

In turn, `CN(C)Cc1ccc(C(=O)NCCN(C)C2CC2)cc1Oc1cccnc1` [Example 90, N-[2-(Cyclopropyl-methyl-amino)-ethyl]-4-dimethylaminomethyl-3-(pyridin-3-yloxy)-benzamide] returned a Ki of 45 nM.

`CC(C)N1CCN(Cc2ccc(C(=O)N3CCCCC3)cc2Oc2ccccc2)CC1` [Example 87, [4-(4-Isopropyl-piperazin-1-ylmethyl)-3-phenoxy-phenyl]-piperidin-1-yl-methanone] had a Ki of 280 nM. The same measure, in the same setting: then `Cc1ccc(Oc2cc(C(=O)N3CCN(C(C)C)CC3)ccc2CN2CCOCC2)c(C)n1` [Example 83, [3-(2,6-Dimethyl-pyridin-3-yloxy)-4-morpholin-4-ylmethyl-phenyl]-(4-isopropyl-piperazin-1-yl)-methanone], with 21 nM; and `CNCc1cc(C(=O)N2CCN(C3CC3)CC2)ccc1Sc1ccc(Cl)cc1` [Example 28, [4-(4-Chloro-phenylsulfanyl)-3-methylaminomethyl-phenyl]-(4-cyclopropyl-piperazin-1-yl)-methanone], with 150 nM.

For a further assay, the target named is Rat SERT (Rattus norvegicus, UniProt P31652). The assay is described as follows: biochemical.
Rat SERT, sequence (P31652 whole entry): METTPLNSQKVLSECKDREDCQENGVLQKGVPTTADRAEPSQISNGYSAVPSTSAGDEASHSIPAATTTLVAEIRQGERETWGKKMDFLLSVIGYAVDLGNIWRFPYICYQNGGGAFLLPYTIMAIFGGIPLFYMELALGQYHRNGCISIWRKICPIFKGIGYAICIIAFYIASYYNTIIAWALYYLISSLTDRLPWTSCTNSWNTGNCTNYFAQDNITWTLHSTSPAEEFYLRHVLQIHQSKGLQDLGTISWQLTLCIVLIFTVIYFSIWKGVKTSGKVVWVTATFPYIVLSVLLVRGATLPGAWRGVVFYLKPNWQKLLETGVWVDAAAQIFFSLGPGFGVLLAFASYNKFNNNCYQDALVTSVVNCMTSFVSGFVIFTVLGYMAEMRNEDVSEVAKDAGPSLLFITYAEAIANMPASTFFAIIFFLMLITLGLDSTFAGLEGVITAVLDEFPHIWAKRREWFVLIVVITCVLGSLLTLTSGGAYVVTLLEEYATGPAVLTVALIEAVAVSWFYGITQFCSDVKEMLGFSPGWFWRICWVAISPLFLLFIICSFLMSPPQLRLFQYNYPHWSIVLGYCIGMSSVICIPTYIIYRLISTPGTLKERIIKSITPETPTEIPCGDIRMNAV
Conditions: not given
`CNCc1cc(C(=O)N2CC[C@H](N(C)C)C2)ccc1Oc1ccc(SC)cc1` [Example 25, (S)-(3-Dimethylamino-pyrrolidin-1-yl)-[3-methylaminomethyl-4-(4-methylsulfanyl-phenoxy)-phenyl]-methanone] yielded a Ki of 0.9 nM.

The compound `CSc1ccc(Oc2ccc(CN3CCN(C(C)C)CC3)cc2CNC2CC2)cc1` [Example 60, Cyclopropyl-[5-(4-isopropyl-piperazin-1-ylmethyl)-2-(4-methylsulfanyl-phenoxy)-benzyl]-amine] came in with an inhibitory constant (Ki) of 3 nM.
